# Reference: PMC8583042, “New Hybrid Compounds Combining Fragments of Usnic Acid and Thioether Are Inhibitors of Human Enzymes TDP1, TDP2 and PARP1” (International Journal of Molecular Sciences, 2021)
# What was measured:
# [1] = Colorimetric cytotoxicity test, HEK293A Tdp1-/-; type: cell-based; details: human, HEK293A Tdp1-/- cells; TDP1-/- cell line, intrinsic cytotoxicity (Figure 6)
# Text: In our previous works, we checked the cytotoxic effect of Tpc and the TDP1 inhibitors—monoterpene 3-carene-derived compounds [48, 49] and UA combined with monoterpenoids, measured separately and jointly with Tpc—using a panel of HEK293FT and HEK293A Tdp1 knockout isogenic clones. […] The data on the HEK293FT mutants were of low reproducibility, which is why we decided to change the basic cell line to HEK293A [49]. In this work, we created new PARP1-/- HEK293A cells using the CRISPR–Cas9 approach (Figure S27). […] We checked the intrinsic cytotoxicity of the leader compound (10a) on the HEK293 wild type and TDP1-/- and PARP1-/- cell lines using a colorimetric test (Figure 6). […] There was no difference between the WT and mutant cells.
# Cytotoxicity of the compounds was examined against human cell lines HEK293A (human embryonic kidney)—WT, TDP1 deficient (Tdp1-/-), PARP1 deficient (PARP1-/-), and HeLa (cervical cancer) using an EZ4U colorimetric test (Biomedica, Vienna, Austria). […] After the formation of a 30–50% monolayer, the tested compounds were added to the medium, and the cell culture was monitored for 3 days. […] The compound concentration that caused 50% cell growth inhibition was determined using OriginPro 8.6.0 software (OriginLab, Northampton, MA, USA). […]
# TDP1 = target: T1, TDP1 (Homo sapiens, UniProt Q9NUW8); experiment: Steady-state kinetics of the TDP1 reaction (Vmax, KM, type of inhibition); type: biochemical; design: Vmax: unit not given here
# T1 construct: made in house; host or cells: E. coli
# Text: The reversible enzyme inhibitors were classified as competitive, uncompetitive, non-competitive, or mixed, depending on the binding of the enzyme, to the enzyme–substrate complex (ES) or to the enzyme–substrate–inhibitor triple complex (ESI). The enzyme could bind the inhibitor at the different steps of catalysis (before or after the substrate) and at the substrate-binding site or another site. The effect of the inhibitor on enzymatic activity can be analyzed using graphical representations of the Michaelis–Menten equation. […] TDP1 has a catalytic pocket with a narrow positively charged cleft where it binds DNA and with a relatively large cleft that contains a mixed charge distribution for the TOP1 fragment binding. It is known that TDP1 hydrolyzes the DNA–TOP1 adducts via two coordinated nucleophilic attacks of two His residues (His263 and His493) with the covalent intermediate complex formation. The enzyme reaction catalyzed by TDP1 could be inhibited in two steps: the first one is the inhibition of the TDP1 binding to the DNA substrate (the nucleophilic attack of His263). The second step is releasing TDP1 from the transition complex (nucleophilic attack by a water molecule activated by His493). Inhibition of the second step prevents the release of the DNA 3′-phosphate product from the DNA–TDP1 complex. Spinocerebellar ataxia with axonal neuropathy (SCAN1) is a neurological disease that is caused by a TDP1 His493Arg mutation. This mutation prevents the second step of hydrolysis of the intermediate complex and the enzyme remains covalently bound to DNA [47]. The uncompetitive inhibitors also prevent the second step of the reaction, stabilizing the enzyme–DNA covalent complex, which can lead to the accumulation of the single-strand breaks in the cell.
# The biosensor (5′-[FAM] AAC GTC AGGGTC TTC C [BHQ]-3′) was synthesized in the Laboratory of Nucleic Acid Chemistry at the Institute of Chemical Biology and Fundamental Medicine (Novosibirsk, Russia) and was used for TDP1 enzyme activity real-time fluorescence detection. The reaction mixture (200 μL) contained a TDP1 reaction buffer (50 mM Tris-HCl, pH 8.0, 50 mM NaCl, and 7 mM β-mercaptoethanol), 50 nM oligonucleotide, varied concentrations of the tested compounds, and purified TDP1 in a final concentration 1.5 nM. The reaction mixtures were incubated at a constant temperature of 26 °C in a POLARstar OPTIMA fluorimeter (BMG LABTECH, GmbH, Ortenberg, Germany). Fluorescence intensity was measured (Ex485/Em520 nm) every 1 min for 10 min. The average values of the half maximal inhibitory concentration (IC50) were determined using an eleven-point concentration response curve and calculated using MARS Data Analysis 2.0 (BMG LABTECH). The 50% inhibitory concentration (IC50) was defined as the concentration of the compound that inhibited 50% of the enzyme activity when compared to the untreated controls. At least three independent experiments were carried out to obtain the IC50 values. To determine the kinetic parameters of the TDP1 enzymatic reaction, the apparent maximum rate of enzymatic reaction (Vmax), Michaelis constant (KM), possible inhibition mechanism, and steady-state kinetic experiments were carried out at 5 fixed concentrations of the substrate, with variation in the inhibitor concentrations. The standard reaction mixtures (200 μL) contained reaction buffer components; 50 nM, 100 nM, 200 nM, 500 nM, or 1000 nM substrate; an inhibitor; and 1.5 nM recombinant human TDP1. The initial kinetic curves were obtained in three independent experiments and statistically processed in OriginPro 8.6.0 (OriginLab, Northampton, MA, USA).
# Table S25 Dependence of TDP1 reaction values V max and K M on the concentration of inhibitors
# [7g], mM V max Standard Error K M Standard Error
# [7h], mM V max Standard Error K M Standard Error
# [10a], mM V max Standard Error K M Standard Error
# [10b], mM V max Standard Error K M Standard Error
# T1 sequence (Q9NUW8 whole entry): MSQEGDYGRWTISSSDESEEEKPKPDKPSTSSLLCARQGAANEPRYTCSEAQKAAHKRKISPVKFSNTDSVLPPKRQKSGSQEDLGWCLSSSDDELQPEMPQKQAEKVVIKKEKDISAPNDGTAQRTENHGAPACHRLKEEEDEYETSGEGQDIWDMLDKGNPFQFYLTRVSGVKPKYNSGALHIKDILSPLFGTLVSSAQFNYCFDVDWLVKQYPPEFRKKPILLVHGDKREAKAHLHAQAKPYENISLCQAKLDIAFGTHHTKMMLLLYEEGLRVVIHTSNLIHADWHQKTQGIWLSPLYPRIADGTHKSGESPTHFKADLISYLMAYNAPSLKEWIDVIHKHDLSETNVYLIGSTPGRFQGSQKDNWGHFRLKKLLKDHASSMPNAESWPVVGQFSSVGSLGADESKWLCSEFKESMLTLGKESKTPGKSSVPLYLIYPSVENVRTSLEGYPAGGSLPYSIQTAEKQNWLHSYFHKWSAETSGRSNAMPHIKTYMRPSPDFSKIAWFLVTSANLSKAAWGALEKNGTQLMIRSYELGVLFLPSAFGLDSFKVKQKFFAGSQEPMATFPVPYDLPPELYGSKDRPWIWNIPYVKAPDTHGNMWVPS
smiles,measurement,setting,value
"CC(=O)C1=C(O)C=C2Oc3c(C(=O)C[S+]([O-])c4nc5ccccc5s4)c(O)c(C)c(O)c3[C@@]2(C)C1=O (stereo partly drawn) [10a, (2R)-4-acetyl-10-[2-(1,3-benzothiazole-2-sulfinyl)acetyl]-5,11,13-trihydroxy-2,12-dimethyl-8-oxatricyclo[7.4.0.0^2,7]trideca-1(13),4,6,9,11-pentaen-3-one]",CC50 at 3 days,[1],15 to 20 µM
same,Vmax,TDP1; inhibitor 0.8 mM (so in the source),27.8
same,Vmax,TDP1; inhibitor 1.6 mM (so in the source),26.5
same,Vmax,TDP1; inhibitor 3.2 mM (so in the source),25.1
same,Vmax,TDP1; inhibitor 6.4 mM (so in the source),21.3
same,Type of inhibition of TDP1 enzyme reaction,"TDP1; steady-state conditions, fall in both Vmax and KM with increasing inhibitor",uncompetitive
